According to US7338950B2, “Amide compounds as ion channel ligands and uses thereof” (Renovis, Inc., priority 2003, dated 2008):

System: VR1 receptor (293 cells expressing capsaicin-insensitive VR1 receptor variants)
Assay: High throughput screening of VR1 antagonists using a calcium imaging assay (Fura2, pH 5.1 stimulus);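 also: Fura2 ratiometric fluorescence read every 4 s over 3 min, response taken as peak ratio minus baseline before pre-treatment, compound pre-treatment preceding acid challenge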
Settings: 1 uM compound; inhibition of calcium ion influx
Text: A dual wavelength ratiometric dye, Fura2, was used as an indicator of relative levels of calcium ions in a 96 well format using a bench top scanning fluorometer with integrated fluidics and temperature control (Flex Station, Molecular Devices).
A dual wavelength ratiometric dye, Fura2, was used as an indicator of relative levels of [Ca2+] in a 96 well format using a bench top scanning fluorometer with integrated fluidics and temperature control (Flex Station, Molecular Devices).
293 cells were grown on PDL coated 96-well black-walled plates, in the presence of a DMEM medium containing 5% Penstrep, 5% Glutamax, 200 ug/mL Hygromycin, 5 μg/mL Blasticide and 10% heat inactivated FBS. Prior to assay, the cells were loaded with 5 μg/mL Fura2 in normal saline solution at 37° C. for 40 minutes. Cells were then washed with normal saline to remove the dye.
The assay consists of two stages; a pre-treatment phase followed by a treatment phase.
50 μl of a compound solution was added to the cells (Pre-treatment). Immediately following, 50 μl of the test compound in a saline solution at pH 5.1 was added. […] Changes in wavelength measurements were made throughout the course of the experiment in 4 second intervals over a period of 3 minutes. Responses were measured as peak fluorescence ratio after test compound addition minus baseline fluorescence ratio prior to pre-treatment and were calculated using SoftMaxPro softwareData were expressed as percentage inhibition calculated using Excel as follows:

SMILES | % Inhibition @ 1 uM
O=C(Nc1ccc(F)c(F)c1)c1ccc(-c2ncccc2Cl)cn1 [Compound 1363] | ++++ (compound exhibited 75% or greater inhibition of calcium ion influx induced by capsaicin stimulation)
COc1cc(C(=O)Nc2ccc(Br)cn2)ccc1-c1ncccc1Cl [Compound 1243] | + (compound exhibited 0-25% inhibition of calcium ion influx induced by capsaicin stimulation)
CC(C)Oc1cccc(NC(=O)c2ccc(-c3ncccc3Cl)cc2)c1 [Compound 1295] | + (compound exhibited 0-25% inhibition of calcium ion influx induced by capsaicin stimulation)
COc1ccc(NC(=O)c2ccc(-c3ncccc3Cl)c(F)c2)cc1O [Compound 1187] | ++ (compound exhibited 25-50% inhibition of calcium ion influx induced by capsaicin stimulation)
O=C(Nc1cccnc1)c1ccc(-c2ncccc2Cl)cc1F [Compound 1080] | + (compound exhibited 0-25% inhibition of calcium ion influx induced by capsaicin stimulation)
O=C(Nc1ccccc1O)c1ccc(-c2ncccc2Cl)cc1F [Compound 1084] | + (compound exhibited 0-25% inhibition of calcium ion influx induced by capsaicin stimulation)
COc1cc(C(=O)Nc2ccc(F)cc2[N+](=O)[O-])ccc1-c1ncccc1Cl [Compound 1227] | ++++ (compound exhibited 75% or greater inhibition of calcium ion influx induced by capsaicin stimulation)
O=C(Nc1cccc(Cl)c1)c1ccc(-c2ncccc2Cl)cc1F [Compound 1088] | + (compound exhibited 0-25% inhibition of calcium ion influx induced by capsaicin stimulation)
O=C(Nc1ccc([N+](=O)[O-])cc1)c1ccc(-c2ncccc2Cl)cc1 [Compound 1073] | ++++ (compound exhibited 75% or greater inhibition of calcium ion influx induced by capsaicin stimulation)
O=C(Nc1cccc(Br)c1)c1ccc(-c2ncccc2Cl)cc1 [Compound 1038] | + (compound exhibited 0-25% inhibition of calcium ion influx induced by capsaicin stimulation)
CCN(CC)CCOC(=O)c1ccc(NC(=O)c2ccc(-c3ncccc3Cl)cc2)cc1 [Compound 1282] | + (compound exhibited 0-25% inhibition of calcium ion influx induced by capsaicin stimulation)
CCCOc1ccc(NC(=O)c2ccc(-c3ncccc3Cl)cn2)cc1 [Compound 1358] | + (compound exhibited 0-25% inhibition of calcium ion influx induced by capsaicin stimulation)
CCCOc1ccc(NC(=O)c2ccc(-c3ncccc3Cl)cc2)cc1 [Compound 1291] | + (compound exhibited 0-25% inhibition of calcium ion influx induced by capsaicin stimulation)
O=C(Nc1cccnc1)c1ccc(-c2ncccc2Cl)cc1 [Compound 1025] | ++++ (compound exhibited 75% or greater inhibition of calcium ion influx induced by capsaicin stimulation)
O=C(Nc1ccc2c(c1)Cc1ccccc1-2)c1ccc(-c2ncccc2Cl)cc1 [Compound 1053] | ++ (compound exhibited 25-50% inhibition of calcium ion influx induced by capsaicin stimulation)
CC(C)(C)c1ccc(NC(=O)c2ccc(-c3ncccc3Cl)cc2F)cc1 [Compound 1103] | + (compound exhibited 0-25% inhibition of calcium ion influx induced by capsaicin stimulation)
COc1ccc(NC(=O)c2ccc(-c3ncccc3Cl)cn2)cc1O [Compound 1355] | ++ (compound exhibited 25-50% inhibition of calcium ion influx induced by capsaicin stimulation)
O=C(Nc1ccc2ccccc2c1)c1ccc(-c2ncccc2Cl)cc1F [Compound 1126] | ++ (compound exhibited 25-50% inhibition of calcium ion influx induced by capsaicin stimulation)
O=C(Nc1ccccc1)c1ccc(-c2ncccc2Cl)cc1 [Compound 1020] | + (compound exhibited 0-25% inhibition of calcium ion influx induced by capsaicin stimulation)
CCOc1ccc(NC(=O)c2ccc(-c3ncccc3Cl)cc2)cc1 [Compound 1298] | + (compound exhibited 0-25% inhibition of calcium ion influx induced by capsaicin stimulation)
COc1ccc(NC(=O)c2ccc(-c3ncccc3Cl)cc2)cc1O [Compound 1288] | + (compound exhibited 0-25% inhibition of calcium ion influx induced by capsaicin stimulation)
COc1cc(C(=O)Nc2ccc(Cl)cc2S(=O)(=O)O)ccc1-c1ncccc1Cl [Compound 1278] | + (compound exhibited 0-25% inhibition of calcium ion influx induced by capsaicin stimulation)
O=C(Nc1ccc(F)c(F)c1)c1ccc(-c2ncccc2Cl)c(F)c1 [Compound 1195] | +++ (compound exhibited 50-75% inhibition of calcium ion influx induced by capsaicin stimulation)
N#Cc1ccccc1NC(=O)c1ccc(-c2ncccc2Cl)cc1 [Compound 1028] | + (compound exhibited 0-25% inhibition of calcium ion influx induced by capsaicin stimulation)
COc1ccc(NC(=O)c2ccc(-c3ncccc3Cl)c(OC)c2)cn1 [Compound 1247] | ++ (compound exhibited 25-50% inhibition of calcium ion influx induced by capsaicin stimulation)
CCOC(=O)c1ccc(NC(=O)c2ccc(-c3ncccc3Cl)cn2)cc1 [Compound 1350] | + (compound exhibited 0-25% inhibition of calcium ion influx induced by capsaicin stimulation)

SMILES | % Inhibition @ 1 uM
O=C(Nc1ccc(OC(F)(F)F)cc1)c1ccc(-c2ncccc2Cl)c(F)c1 [Compound 1192] | ++ (compound exhibited 25-50% inhibition of calcium ion influx induced by capsaicin stimulation)
COc1cc(C(=O)Nc2ccc(-c3cnco3)cc2)ccc1-c1ncccc1Cl [Compound 1277] | +++ (compound exhibited 50-75% inhibition of calcium ion influx induced by capsaicin stimulation)
O=C(Nc1ccc(OCc2ccccc2)cc1)c1ccc(-c2ncccc2Cl)cn1 [Compound 1349] | + (compound exhibited 0-25% inhibition of calcium ion influx induced by capsaicin stimulation)
COc1ccc(NC(=O)c2ccc(-c3ncccc3Cl)cn2)cn1 [Compound 1341] | ++ (compound exhibited 25-50% inhibition of calcium ion influx induced by capsaicin stimulation)
COc1cc(C(=O)Nc2nccs2)ccc1-c1ncccc1Cl [Compound 1252] | + (compound exhibited 0-25% inhibition of calcium ion influx induced by capsaicin stimulation)
COc1ccc(NC(=O)c2ccc(-c3ncccc3Cl)cc2)cc1 [Compound 1022] | ++ (compound exhibited 25-50% inhibition of calcium ion influx induced by capsaicin stimulation)
O=C(Nc1ccc2ccccc2c1)c1ccc(-c2ncccc2Cl)cn1 [Compound 1348] | ++ (compound exhibited 25-50% inhibition of calcium ion influx induced by capsaicin stimulation)
O=C(Nc1ccc2ccccc2c1)c1ccc(-c2ncccc2Cl)cc1 [Compound 1074] | ++++ (compound exhibited 75% or greater inhibition of calcium ion influx induced by capsaicin stimulation)
O=C(Nc1ccc(Cl)nc1)c1ccc(-c2ncccc2Cl)cc1 [Compound 1048] | + (compound exhibited 0-25% inhibition of calcium ion influx induced by capsaicin stimulation)
N#Cc1cccc(NC(=O)c2ccc(-c3ncccc3Cl)cn2)c1 [Compound 1316] | ++++ (compound exhibited 75% or greater inhibition of calcium ion influx induced by capsaicin stimulation)
COc1ccc(NC(=O)c2ccc(-c3ncccc3Cl)c(OC)c2)cc1 [Compound 1207] | + (compound exhibited 0-25% inhibition of calcium ion influx induced by capsaicin stimulation)
CCn1c2ccccc2c2cc(NC(=O)c3ccc(-c4ccccc4Cl)c(OC)c3)ccc21 [Compound 1251] | + (compound exhibited 0-25% inhibition of calcium ion influx induced by capsaicin stimulation)
CCCOc1ccc(NC(=O)c2ccc(-c3ncccc3Cl)c(F)c2)cc1 [Compound 1190] | ++ (compound exhibited 25-50% inhibition of calcium ion influx induced by capsaicin stimulation)
Cc1ccc(NC(=O)c2ccc(-c3ncccc3Cl)c(F)c2)c(C)c1 [Compound 1145] | ++++ (compound exhibited 75% or greater inhibition of calcium ion influx induced by capsaicin stimulation)
COc1cc(C(=O)Nc2cccc(C#N)c2)ccc1-c1ncccc1Cl [Compound 1218] | ++++ (compound exhibited 75% or greater inhibition of calcium ion influx induced by capsaicin stimulation)
COc1cc(C(=O)Nc2ccc(F)c(F)c2)ccc1-c1ncccc1Cl [Compound 1271] | +++ (compound exhibited 50-75% inhibition of calcium ion influx induced by capsaicin stimulation)
COc1cc(C(=O)Nc2ccc(OC)c(C(F)(F)F)c2)ccc1-c1ncccc1Cl [Compound 1275] | ++ (compound exhibited 25-50% inhibition of calcium ion influx induced by capsaicin stimulation)
CCCCc1ccc(NC(=O)c2ccc(-c3ncccc3Cl)cc2)cc1 [Compound 1043] | ++ (compound exhibited 25-50% inhibition of calcium ion influx induced by capsaicin stimulation)
O=C(Nc1ccnc(Cl)c1)c1ccc(-c2ncccc2Cl)cn1 [Compound 1342] | + (compound exhibited 0-25% inhibition of calcium ion influx induced by capsaicin stimulation)
CC(C)(NC(=O)c1ccc(-c2ncccc2Cl)cc1F)c1ccccc1 [Compound 1083] | + (compound exhibited 0-25% inhibition of calcium ion influx induced by capsaicin stimulation)
Cc1cc(C)nc(NC(=O)c2ccc(-c3ncccc3Cl)c(F)c2)c1 [Compound 1156] | + (compound exhibited 0-25% inhibition of calcium ion influx induced by capsaicin stimulation)
CC(C)(C)c1ccc(NC(=O)c2ccc(-c3ncccc3Cl)cc2)cc1 [Compound 1041] | ++++ (compound exhibited 75% or greater inhibition of calcium ion influx induced by capsaicin stimulation)
COc1cc(C(=O)Nc2cccc(C(F)(F)F)c2)ccc1-c1ncccc1Cl [Compound 1267] | ++ (compound exhibited 25-50% inhibition of calcium ion influx induced by capsaicin stimulation)
COc1cc(NC(=O)c2ccc(-c3ncccc3Cl)cn2)cc(OC)c1OC [Compound 1356] | + (compound exhibited 0-25% inhibition of calcium ion influx induced by capsaicin stimulation)
O=C(Nc1ccc(C(F)(F)F)cc1)c1ccc(-c2ncccc2Cl)c(F)c1 [Compound 1152] | ++ (compound exhibited 25-50% inhibition of calcium ion influx induced by capsaicin stimulation)
